Experimental data: ChEMBL document CHEMBL1201862, “PubChem BioAssay data set” (2004)
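Following 48 hours of exposure in 96-well plates, responses at five concentrations were used to interpolate endpoints linearly. At the GI50, growth is halved.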 Active and inactive are the calls of the source. Cut-off read from the data, not from the text of the source: active = GI50 up to about 1.1 µM and inactive = higher.

Experiments:
Test in all cases: growth of human tumour cells (NCI), 48 h
SF-295 = system: SF-295
DMS-114 = system: DMS-114
HCT-116 = system: HCT-116
K562 = system: K562
MOLT-4 = system: MOLT-4
HL-60 = system: HL-60
HCC 2998 = system: HCC 2998
SK-OV-3 = system: SK-OV-3
SNB-75 = system: SNB-75
HOP-18 = system: HOP-18
UACC-62 = system: UACC-62
SK-MEL-2 = system: SK-MEL-2
SNB-19 = system: SNB-19
DMS-273 = system: DMS-273
OVCAR-4 = system: OVCAR-4
SF-539 = system: SF-539
CAKI-1 = system: CAKI-1

SMILES	GI50 (SF-295)	GI50 (DMS-114)	GI50 (HCT-116)	GI50 (K562)	GI50 (MOLT-4)	GI50 (HL-60)	GI50 (HCC 2998)	GI50 (SK-OV-3)	GI50 (SNB-75)	GI50 (HOP-18)	GI50 (UACC-62)	GI50 (SK-MEL-2)	GI50 (SNB-19)	GI50 (DMS-273)	GI50 (OVCAR-4)	GI50 (SF-539)	GI50 (CAKI-1)
NC1CC(n2ccc(=O)[nH]c2=O)OC1C(O)CO (configuration not stated)	> 100 µM (inactive)	> 100 µM (inactive)	> 100 µM (inactive)	> 100 µM (inactive)	> 100 µM (inactive)	> 100 µM (inactive)	> 100 µM (inactive)	> 100 µM (inactive)	> 100 µM (inactive)	> 100 µM (inactive)	> 100 µM (inactive)	> 100 µM (inactive)	> 100 µM (inactive)	> 100 µM (inactive)	> 100 µM (inactive)	> 100 µM (inactive)	
NCC(=O)OCN1C(=O)C2C3C=CC(C2C1=O)C1C2C(=O)N(COC(=O)CN)C(=O)C2C31 (configuration not stated)	> 100 µM (inactive)	20.9 µM (inactive)	16.9 µM (inactive)	30.5 µM (inactive)	28.9 µM (inactive)	12.4 µM (inactive)		76.9 µM (inactive)	23.6 µM (inactive)	25.6 µM (inactive)	23 µM (inactive)	19.4 µM (inactive)	71.3 µM (inactive)	18.2 µM (inactive)	20 µM (inactive)	30.2 µM (inactive)	53.5 µM (inactive)
N#CC12CCC(O)C(CC1)C2=O (configuration not stated)	> 100 µM (inactive)	19.4 µM (inactive)	73.1 µM (inactive)	> 100 µM (inactive)	> 100 µM (inactive)	> 100 µM (inactive)	> 100 µM (inactive)	> 100 µM (inactive)	> 100 µM (inactive)	> 100 µM (inactive)	> 100 µM (inactive)	> 100 µM (inactive)	> 100 µM (inactive)	96.8 µM (inactive)	> 100 µM (inactive)	> 100 µM (inactive)	> 100 µM (inactive)
COc1cc2c(cc1OC)C(CC1=C(c3ccccc3)CN3CCc4cc(OC)c(OC)cc4C3C1)NCC2 (configuration not stated)	16.8 µM (inactive)	14.3 µM (inactive)		12.2 µM (inactive)	9.91 µM (inactive)	12.2 µM (inactive)	10.6 µM (inactive)	28 µM (inactive)	12.5 µM (inactive)	14.6 µM (inactive)	20.4 µM (inactive)	20.5 µM (inactive)	19.6 µM (inactive)	15.7 µM (inactive)	14 µM (inactive)		25.7 µM (inactive)
Cc1ccc(NC(=O)C(=O)C(C#N)c2nc(-c3ccc(-c4ccccc4)cc3)cs2)c(C)c1 (configuration not stated)	> 100 µM (inactive)	> 100 µM (inactive)	> 100 µM (inactive)		> 100 µM (inactive)		> 100 µM (inactive)	> 100 µM (inactive)	> 100 µM (inactive)	> 100 µM (inactive)	> 100 µM (inactive)	> 100 µM (inactive)	> 100 µM (inactive)	39.6 µM (inactive)	> 100 µM (inactive)	> 100 µM (inactive)	> 100 µM (inactive)
COCN(C)c1nc(N(C)C)nc(N(C)C)n1	> 100 µM (inactive)	> 100 µM (inactive)	> 100 µM (inactive)	> 100 µM (inactive)	> 100 µM (inactive)	> 100 µM (inactive)	> 100 µM (inactive)	> 100 µM (inactive)	> 100 µM (inactive)	89.3 µM (inactive)	> 100 µM (inactive)	> 100 µM (inactive)	> 100 µM (inactive)	> 100 µM (inactive)	> 100 µM (inactive)	> 100 µM (inactive)	> 100 µM (inactive)
OCC1CC2C=CCC(C2)C1 (configuration not stated)	> 100 µM (inactive)	> 100 µM (inactive)	> 100 µM (inactive)	> 100 µM (inactive)	> 100 µM (inactive)	> 100 µM (inactive)		> 100 µM (inactive)	> 100 µM (inactive)	> 100 µM (inactive)	> 100 µM (inactive)	> 100 µM (inactive)	> 100 µM (inactive)	> 100 µM (inactive)	> 100 µM (inactive)	> 100 µM (inactive)	> 100 µM (inactive)
N#CC1(c2nc3ccccc3o2)C(=O)C(=O)N(c2ccc(Cl)c(Cl)c2)C(=O)C1=O	> 100 µM (inactive)			71 µM (inactive)	30.3 µM (inactive)	26 µM (inactive)	> 100 µM (inactive)		> 100 µM (inactive)	> 100 µM (inactive)		> 100 µM (inactive)	> 100 µM (inactive)	> 100 µM (inactive)	58.6 µM (inactive)		> 100 µM (inactive)
COC(=O)C(=O)C1CCCCC(C2=NC3NN=C(N)N3C2=O)C1=O (configuration not stated)	> 100 µM (inactive)	> 100 µM (inactive)	> 100 µM (inactive)	> 100 µM (inactive)	> 100 µM (inactive)	> 100 µM (inactive)	> 100 µM (inactive)	> 100 µM (inactive)	> 100 µM (inactive)	> 100 µM (inactive)	> 100 µM (inactive)	> 100 µM (inactive)	> 100 µM (inactive)	> 100 µM (inactive)	> 100 µM (inactive)	> 100 µM (inactive)	> 100 µM (inactive)
Cc1cccc(C)c1NC(=O)C(=O)CC(=O)CO	> 100 µM (inactive)	> 100 µM (inactive)	> 100 µM (inactive)	> 100 µM (inactive)	> 100 µM (inactive)	> 100 µM (inactive)	> 100 µM (inactive)	> 100 µM (inactive)	73.5 µM (inactive)	> 100 µM (inactive)	> 100 µM (inactive)	> 100 µM (inactive)	> 100 µM (inactive)	> 100 µM (inactive)	> 100 µM (inactive)	> 100 µM (inactive)	> 100 µM (inactive)
C[C@]12CCC[C@H](Cl)C1(O)C[C@H](C(=O)O)CC2 (some centres not stated)	> 100 µM (inactive)	> 100 µM (inactive)	> 100 µM (inactive)	> 100 µM (inactive)	> 100 µM (inactive)	> 100 µM (inactive)	> 100 µM (inactive)	> 100 µM (inactive)	> 100 µM (inactive)	> 100 µM (inactive)	> 100 µM (inactive)	> 100 µM (inactive)	> 100 µM (inactive)	> 100 µM (inactive)	> 100 µM (inactive)	> 100 µM (inactive)	> 100 µM (inactive)
CCOC(=O)C1(Br)C(c2ccccc2)NC(=O)N(C2OC(COC(=O)c3ccccc3)C(OC(=O)c3ccccc3)C2OC(=O)c2ccccc2)C1(C)Br (configuration not stated)	33.3 µM (inactive)	18.3 µM (inactive)	18.2 µM (inactive)	8.91 µM (inactive)	18.2 µM (inactive)	0.0565 µM (active)	91 µM (inactive)	42.9 µM (inactive)	13.3 µM (inactive)	> 100 µM (inactive)	10.6 µM (inactive)	31.5 µM (inactive)	39.9 µM (inactive)	33.5 µM (inactive)	13.9 µM (inactive)	38.7 µM (inactive)	35.6 µM (inactive)
COc1nc(NC2OCC(O)C(O)C2O)c(NC2OCC(O)C(O)C2O)c(=O)n1C (configuration not stated)	> 100 µM (inactive)	> 100 µM (inactive)	> 100 µM (inactive)	> 100 µM (inactive)	> 100 µM (inactive)	> 100 µM (inactive)	> 100 µM (inactive)	> 100 µM (inactive)	> 100 µM (inactive)	> 100 µM (inactive)	> 100 µM (inactive)	> 100 µM (inactive)	> 100 µM (inactive)	> 100 µM (inactive)	> 100 µM (inactive)	> 100 µM (inactive)	
Cc1c(Cl)ccc2c1NC(=O)C2(O)CC(=O)c1ccc(Cl)cc1 (configuration not stated)	24.8 µM (inactive)	11.7 µM (inactive)	27.5 µM (inactive)	22.8 µM (inactive)	17.7 µM (inactive)	28.6 µM (inactive)	> 42 µM (inactive)	> 100 µM (inactive)	76.2 µM (inactive)	> 70.8 µM (inactive)	33.5 µM (inactive)	> 46 µM (inactive)	97.3 µM (inactive)	48.2 µM (inactive)	43.7 µM (inactive)	65.2 µM (inactive)	> 71.9 µM (inactive)
CC(=O)Nc1ccc(/C=C/C(=O)c2sc(-n3nc(-c4ccccc4)cc3-c3ccccc3)nc2C)cc1	> 10 µM (inactive)	74.8 µM (inactive)	> 10 µM (inactive)	> 10 µM (inactive)	> 10 µM (inactive)	> 10 µM (inactive)	> 10 µM (inactive)	> 10 µM (inactive)	> 10 µM (inactive)	> 10 µM (inactive)	> 10 µM (inactive)	> 10 µM (inactive)	> 10 µM (inactive)	> 10 µM (inactive)	78.7 µM (inactive)	> 10 µM (inactive)	> 10 µM (inactive)
NC(CCC(=O)Nc1ccc(O)cc1)C(=O)O (configuration not stated)		> 100 µM (inactive)	> 100 µM (inactive)	> 100 µM (inactive)	> 100 µM (inactive)	> 100 µM (inactive)		> 100 µM (inactive)	> 100 µM (inactive)	> 100 µM (inactive)	> 100 µM (inactive)	> 100 µM (inactive)	> 100 µM (inactive)	> 100 µM (inactive)	> 100 µM (inactive)		> 100 µM (inactive)
Cc1cccc(C)c1N1C(=O)C(=O)C(c2nc3ccccc3s2)/C(=N/c2cccc3c(=O)[nH][nH]c(=O)c23)C1=O (configuration not stated)	> 100 µM (inactive)		> 100 µM (inactive)	98.4 µM (inactive)	66.5 µM (inactive)	71.3 µM (inactive)	> 100 µM (inactive)	> 100 µM (inactive)	81.8 µM (inactive)	> 100 µM (inactive)	> 100 µM (inactive)	> 100 µM (inactive)	> 100 µM (inactive)	> 100 µM (inactive)	79.3 µM (inactive)	> 100 µM (inactive)	> 100 µM (inactive)
